From patent US20060135611A1, “Use of 2,5-dihydroxybenzenesulfonic compounds for the treatment of disorders based on an impairment of no production and/or of regulation of edhf function” (priority 2002, published 2006)

Assays:
[1] = tested on: human penile resistance arteries (HPRA); assay: Vascular reactivity of resistance penile arteries (myograph, norepinephrine-contracted)
Protocol: Penile small arteries, helicine arteries (lumen diameter 150-400 μm), which are the terminal branches of deep penile arteries, were dissected by carefully removing the adhering trabecular tissue, and arterial ring segments (of 2 mm length) were subsequently mounted on two 40 μm wires on microvascular double Halpern-Mulvany myographs (J.P. Trading, Aarhus, Denmark) for isometric tension recordings. The vascular segments were allowed to equilibrate for 30 min in physiological salt solution (PSS) of the following composition (each given in mM): 119 NaCl, 4.6 KCl; 1.5 CaCl2, 1.2 MgCl2, 24.9 NaHCO3, 11 Glucose, 1, 2 KH2PO4, 0.027 EDTA in water at 37° C., continuously bubbled with a 95% O2/5% CO2 mixture to maintain a pH of 7.4. Passive tension and internal circumference of the vascular segments when relaxed in situ under a transmural pressure of […] (L100) were determined. The vascular segments were then set to an internal circumference eqivalent to 90% of L100, at which the force development was close to maximal as described in Mulvany MJ, Halpern W., “Contractile properties of small resistance arteries in spontaneously hypertensive and normotensive rats”, Circ. Res., 41, 19-26, 1977. The respective literature description is incorporated by reference and is part of the disclosure.
The preparations were then exposed to 125 mM K^+(KPSS, equimolar substitution of […] in PSS) and the contractile response was measured. The arteries were contracted with 1 μm norepinephrine (approximately 80% of KPSS induced contraction) and relaxation responses were evaluated by cumulative additions of compounds to the chambers.
Relaxation responses are expressed as percentage of total relaxation (loss in tone) induced by the addition of 0.1 mM papaverine HCl to the chambers at the end of the experiment. All data are expressed as mean ± standard error. Complete concentration-response or frequency-response curves were obtained and compared by a two-factor analysis of variance (ANOVA) statistical test using StatView sotfware tor Apple computers. Erectile responses were determined by measuring the area under the curve (AUC) of the intracavemosal pressure increases to rat cavemosal nerve stimulation normalized by mean arterial pressure values. The complete frequency-response curves were compared by a two-factor ANOVA test.

[2] = tested on: Male genetically diabetic rats (BB/wor rats); assay: Erectile responses to cavernosal nerve stimulation in anesthetized diabetic rats; assay type: in vivo, rat; conditions: 10 mg/kg intravenous; 60 min after administration; 1, 3 and 10 Hz
Protocol: Male genetically diabetic rats (BB/wor rats, Mölegaard Breeding and Research, Svensved, Denmark) were anesthetized with ketamine (60 mg/kg). The surgical procedure consisted of dissection and isolation of the right cavernous nerve through an abdominal midline incision and exposure of penile crura through a transverse perineal incision. Intracavemosal pressure (ICP) measurements were accomplished by insertion into the right crus of a 23-gauge needle connected to a disposable pressure transducer (Abbott, Sligo, Ireland) and a data acquisition system (ADInstruments, Castle Hill, Australia). Left carotid artery and right external jugular vein were catheterized for constant blood pressure measurement and saline or drug infusion, respectively. Electrical stimulation was applied by a delicate platinum bipolar hook electrode connected to a stimulator and current amplifier (Cibertec, Madrid, Spain). […]
Relaxation responses are expressed as percentage of total relaxation (loss in tone) induced by the addition of 0.1 mM papaverine HCl to the chambers at the end of the experiment. All data are expressed as mean ± standard error. […] Erectile responses were determined by measuring the area under the curve (AUC) of the intracavemosal pressure increases to rat cavemosal nerve stimulation normalized by mean arterial pressure values. […]

O=S(=O)(O)c1cc(O)ccc1O [Calcium dobesilate, calcium 2,5-dihydroxybenzenesulfonate]
potentiating effects on ACh-induced relaxation of HPRA with APA and CTX ([1]; APA 100 nM + CTX 100 nM, NOS and COX inhibition): abolished the potentiating effects | effect on ACh-induced relaxation of HPRA ([1]; calcium dobesilate 10 μM): markedly potentiated | potentiation of ACh-induced relaxation of HPRA under combined inhibition of NOS and COX ([1]; calcium dobesilate 10 μM, NOS and COX inhibition): not significantly affected | potentiation of ACh-induced relaxation of HPRA at high potassium concentration ([1]; calcium dobesilate 10 μM, high potassium 35 mM): abolished | potentiating effects on ACh-induced relaxation of HPRA resistant to NOS and COX inhibition, with miconazole ([1]; miconazole 0.3 mM): significantly reduced the potentiating effects | erectile responses to cavernosal nerve stimulation (AUC of ICP increase normalized by mean arterial pressure) [2]: significantly enhanced
